Assay results reported in patent publication US20030165475A1, “Non-lethal methods for conditioning a recipient for bone marrow transplantation” (priority 1993, published 2003).
Where “and” joins values, the source holds several entries; their conditions need not be identical. Equal values may be shown once. Read-outs that look alike come from different tables or passages of the source.

Columns and labels:
C57BL/6J mice = settings: C57BL/6J (n=6); 300 cGy TBI + 200 mg/kg CyP
Description: (§1) Three to five week old C57BL/10-Cd4^tml(CD4-KO;H2^b, n=5), C57BL/6J-CD4^tm/mak (CD4-KO; H2^b, n=15) CD57BL/6JCD8α^tm/mak (CD8-KO; H2^b, n=16), C57BL/6J (B6; H2^b, n=6), C57BL/6-6d4^tm/mak (CD4-KO) and C57BL/6-Cd8^tm/mak (CD8-KO)recipient mice, as well as three to five week old B10.BR/SgSnJ (B10.BR, H2^k) donor mice were purchased from the Jackson Laboratory (Bar Harbor, Me.). Knock-out mice were housed in a special pathogen-free barrier facility, while donor mice were housed in a conventional barrier animal facility. Mice were cared for according to National Institute of Health animal care guidelines.
(§2) Bone marrow was prepared as previously described (Ildstad and Sachs, Nature, 307:168 (1984)). Briefly, B10.BR donor mice were euthanized and tibias and femurs harvested. Bone marrow was expelled from the bones with Media 199 (Gibco, Grand Island, N.Y.) containing 10 μg/ml Gentamicin (Gibco) (MEM). The cells were filtered through sterile nylon mesh with 100 μm pores, spun for minutes at 200×g and 4° C., and resuspended in MEM. A cell count was performed and the cells were diluted to a final concentration of 15×10^6 bone marrow cells per 1 ml of MEM.
(§3) CD4-KO and CD8-KO mice were treated with TBI from a cesium source (Gamma-cell 40, Nordion, Ontario, Canada). Doses from 0 to 300 cGy were administered according to the experimental groups. Animals were transplanted with 1 ml MEM containing 15×10^6 B10.BR bone marrow cells via lateral tail vein injection within 4 hours after irradiation.
(§4) Peripheral blood was obtained from the mice by tail-vein bleeding. The blood was collected in heparinized Eppendorf tubes 28 days, 3 months and 6 months after BMT. Fifty μl of whole blood were incubated for 7 minutes with 2 ml of lysing buffer (8.29 g of NH4Cl, 1.0 g of KHCO3 and 0.0372 g Na2EDTA in 1 liter H2O to lyse red blood cells. The cells were washed with 2 ml FACS medium (0.36 g NaHCO3, 1.0 g NaN3 and 1.0 g bovine serum albumin in 1 liter Hanks Balanced Salt Solution and spun at 200×g for 10 minutes at 4° C. After the supernatant was carefully decanted, cells were mixed with 10 μl diluted monoclonal antibodies (mAb; details discussed infra) and incubated for 30 minutes at 4° C. in the dark. The appropriate dilution for the use of the mAb was determined in titration experiments prior to use. After the incubation, the cells were washed twice with 2 ml of FACS medium and spun at 200×g for minutes at 4° C. Finally, the cells were fixed with 1% paraformaldehyde in PBS. The analyses were carried out on a FACS-Calibur (Becton Dickinson, Mountain View, Calif.) with CellQuest software (Becton Dickinson).
(§5) PBL were stained with mAb specific for MHC Class I antigens of donor (FITC conjugated anti-H2K^k, 36-7-5, mouse IgG1) and recipient (PE-conjugated anti-H2K^b, AF6-88.5, mouse IgG2a) origin to determine the percentage of donor chimerism. Multi-lineage engraftment was assessed by staining with biotinylated anti-H2K^k (36-7-5, mouse IgG1), FITC-conjugated anti-H2K^b (AF6-88.5, mouse IgG2a) and PE-conjugated lineage markers 3 months after BMT. The biotinylated antibody was recovered with Streptavidin-Allophycocyanin (SA-APC). The following antibodies were used as lineage markers: anti-GR-1 (RB6-8C5, rat IgG2^b); anti-MAC-1 (M1/70, rat IgG2^b); anti-CD4 (RM4-5, rat IgG2a); anti-CD8α (53-6.7, rat IgG2a); anti-B220 (RA3-6B2, rat IgG2a); anti-NK1.1 (PK136, mouse IgG2a); anti-TCR-β chain (H57-597, hamster IgG); and anti-γδ-TCR (GL3, hamster IgG). Non-specific background staining was controlled for by using isotype control antibodies directed against irrelevant antigens and conjugated with the same color as the experimental antibody (i.e., anti-TNP mouse IgG2a conjugated with PE served as isotype control for PE-conjugated anti-H2K^b mouse IgG2a). All mAb were obtained from PharMingen (San Diego, Calif.). SA-APC was purchased from Becton Dickinson (Mountain View, Calif.).

CD4-KO mice = settings: 300 cGy TBI + 200 mg/kg CyP
Description: as §1, §2, §3, §4, §5

CD8-KO mice = system: CD8-KO mice
Description: as §1, §2, §3, §4, §5

baboon = settings: CyP day -3, -2, -1 + 9.5 Gy TLI day 0
Description: In the following study, baboons were treated with a single dose of 7.5 Gy of TLI at day 0 followed by transfer of allogeneic baboon bone marrow cells with at least one MHC disparity. […] Xenogeneic transplantation with human cells was also performed in baboons conditioned with TLI.

O=P1(N(CCCl)CCCl)NCCCO1 (centres unmarked) [CyP, cyclophosphamide]
% animals that engrafted (C57BL/6J mice): 0%
CD4-KO mice that engrafted (CD4-KO mice; 15 C57BL/6-Cd4 tm/mak mice): None
% animals that engrafted (CD4-KO mice; C57BL/6-Cd4 tm/mak (n=15)): 0%
% animals that engrafted (CD4-KO mice; C57BL/10-Cd4 tml (n=5)): 0%
animals with donor chimerism (CD8-KO mice; 200 mg/kg CyP alone without irradiation, 28 days after BMT): 6 of 6 and Six of 6 and 6 out of 6
% animals that engrafted (CD8-KO mice; C57BL/6-Cd8a tm/mak, 300 cGy TBI + 200 mg/kg CyP day 2): 100%
level of donor chimerism (CD8-KO mice; CyP and 100 cGy TBI (n=6)): 11±0.4%
level of donor chimerism (CD8-KO mice; CyP and 200 cGy TBI (n=6)): 32.7±1.5%
average level of donor chimerism (CD8-KO mice; CyP and 300 cGy TBI (n=16)): 45.7%±2.5
GVHD / morbidity (baboon): no GVHD or significant morbidity
chimerism, human cells (baboon; two months after transplantation): 15%
